Test results reported in patent US20180021467A1, “METHOD OF BLOCKING PERCEPTION OF MALODOR” (Monell Chemical Senses Center, priority 2015, published 2018).
Like-named read-outs stand apart in the source and are kept apart here.

What was measured:
TAAR5 [1] = biological target: T1, TAAR5 (Homo sapiens, UniProt O14804); test: Dose responses on TAAR5 in luciferase assay (antagonist dose-dependent inhibition with TMA at EC80; TMA dose response with antagonist at IC10, IC30, IC50); type: cell-based; set-up: TAAR open reading frames were amplified from pooled human genomic DNA using Phusion polymerase and subcloned into a pCI expression vector; Rho tag (first 20 residues of human rhodopsin); expressed in transfected cells; host or cells: Hana3A cells; conditions: for IC10 concentration of antagonist: lowest of the three concentrations in FIG. 2; for IC30 concentration of antagonist: middle of the three concentrations in FIG. 2
T1 sequence (O14804 1-337): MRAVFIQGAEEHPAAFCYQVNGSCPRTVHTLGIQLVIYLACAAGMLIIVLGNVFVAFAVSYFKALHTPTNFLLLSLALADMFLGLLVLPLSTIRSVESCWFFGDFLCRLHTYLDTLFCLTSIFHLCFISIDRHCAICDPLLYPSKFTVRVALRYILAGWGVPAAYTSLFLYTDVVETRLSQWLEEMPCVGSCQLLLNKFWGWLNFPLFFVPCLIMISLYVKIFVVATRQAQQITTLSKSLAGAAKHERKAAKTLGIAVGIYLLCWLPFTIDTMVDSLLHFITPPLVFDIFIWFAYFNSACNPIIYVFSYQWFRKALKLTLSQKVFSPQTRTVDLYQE
From the text: (§1) We screened a TAAR of interest, TAAR5, with the agonist TMA added at the EC80 concentration, against a proprietary small-molecule library to identify antagonists. TAAR open reading frames were amplified from pooled human genomic DNA using Phusion polymerase and subcloned into a pCI expression vector (Promega) containing the first 20 residues of human rhodopsin (Rho tag). The sequences of the cloned receptors were verified by sequencing (3730xl Sequencer, ABI Biosystems). We used the Dual-Glo™ Luciferase Assay System (Promega) to measure receptor responses as previously described in Trimmer, C. et al 2014 High-throughput Analysis of Mammalian Olfactory Receptors: Measurement of Receptor Activation via Luciferase Activity. Journal of Visualized Experiments, (88). doi:10.3791/51640. Hana3A cells were transfected with 5 ng/well of RTP1S, 5 ng/well of pRL-SV40, 10 ng/well of CRE-luciferase, 2.5 ng/well of M3, and 5 ng/well of odorant receptor. 1M odorant stocks were diluted in DMSO. 24 hours following transfection, transfection media was removed and replaced with the appropriate concentration of odor diluted from the 1M stocks in CD293 (Gibco). Four hours following odor stimulation luminescence was measured using a Synergy 2 plate reader (Biotek). All luminescence values were divided by the Renilla Luciferase activity to control for transfection efficiency in a given well.
In a secondary experiment, we ran dose dependent inhibition responses for the top twelve antagonists, i.e., the top 12 compounds identified in FIG. 4. TMA was kept at the EC80 (500 μM) and the twelve antagonists were diluted in a dose response with the highest concentration at 1000 μM. The top five candidate compounds, i.e., phenethyl benzoate, trans-2-nonen-1-ol, isoeugenyl phenlacetate, tributyl-2-acetylcitrate, bis(2-methyl-3-furyl)disulfide, were rescreened using an antagonist dose response at 2500 μM. We determined the IC80 values for those five antagonists. Using those IC80 values, we completed a 3-fold dilution dose response of TMA, starting at 3000 μM, in the presence of our five candidate antagonists. […] It was difficult to determine if the five antagonists were competitive or non-competitive inhibitors using the very high IC80 concentrations of the antagonists.
In another experiment, we evaluated dose responses of TMA in the presence of the antagonist at their IC10, IC30 and IC50 concentrations.

TAAR5 [2] = biological target: T1, TAAR5; test: Antagonist screen of odor library on TAAR5 with agonist TMA (Dual-Glo luciferase assay, Hana3A cells); type: cell-based; set-up: TAAR open reading frames were amplified from pooled human genomic DNA using Phusion polymerase and subcloned into a pCI expression vector; Rho tag (first 20 residues of human rhodopsin); expressed in transfected cells; host or cells: Hana3A cells; conditions: for inhibition at 30 µM: read-out: Percent Inhibition
Experimental: as §1, with “The sequences of the cloned receptors were verified by sequencing (3730xl Sequencer, ABI Biosystems). We used the Dual-Glo™ Luciferase Assay System (Promega) to measure receptor responses as previously described in Trimmer, C. et al 2014 High-throughput Analysis of Mammalian Olfactory Receptors: Measurement of Receptor Activation via Luciferase Activity. Journal of Visualized Experiments, (88). doi:10.3791/51640.” left out
We completed an antagonist screen of a proprietary library of odors, including the 52 odorous compounds identified in FIG. 4 at a concentration of 30 μM.

[3] = test system: human perception of TMA odor ("fishy"); test: Human perceptual ratings of fishiness of TMA with antagonist or control odor (air-dilution olfactometer); type: in vivo; conditions: human subjects, TMA 3 mM, 1 mM, 0.33 mM, odors intensity-balanced to 1 mM TMA
Experimental: We evaluated the efficacy of the in vitro antagonists on human perception. We asked 10 (FIG. 5A) or 29 (FIG. 5B) subjects to rate how “fishy” and how “pleasant” an odor was. The odors were delivered to the subject using an air-dilution olfactometer (Lundström, J. N., et al., 2010 International Journal of Psychophysiology, 78(2), 179-189; doi:10.1016/j.ijpsycho.2010.07.007) and each trial consisted of one concentration of trimethylamine (either 3 mM, 1 mM, 0.33 mM, or a water blank) combined with either an antagonist or a solvent blank. Subjects used a general labeled magnitude scale to rate how “fishy” the odor smelled and a scale from −10 to +10 to rate the pleasantness.
The antagonists and control odors were intensity-balanced to match the 1 mM concentration of TMA. Trans-2-nonen-1-ol was diluted in Diethyl phthalate (DEP); TMA was diluted in water with NaOH added; Linalool was diluted in DEP. In all trials subjects received air from jars containing water and DEP so that solvent presence could not be used as a cue to the presence of the test odor.

TAAR5 [4] = biological target: T1, TAAR5; conditions: cited from earlier work
[5] = test system: human perception of TMA odor (mixture suppression); test: Split-nostril experiment, physical vs dichorhinic mixtures with TMA; type: in vivo; conditions: human subjects, TMA with probe odorant
From the text: Mixture suppression has both a central and peripheral component (Laing, D., & Willcox, M. (1987). An investigation of the mechanisms of odor suppression using physical and dichorhinic mixtures. Behavioural Brain Research, 26(2-3), 79-87. http://doi.org/10.1016/0166-4328(87)90157-4). […] To test this we carried out split-nostril experiments using stimuli in glass jars. We compared TMA-alone, TMA mixed with the probe odorant in the same nostril (physical mixture), and TMA mixed with the probe odorant in different nostrils (dichorhinic mixture) (FIG. 7). […] Subjects were instructed to make intensity judgements during inhalation to avoid retronasal contamination across nostrils. This allowed us to separate central and peripheral components of the mixture suppression.

[6] = TAAR5 luciferase, vs TMA, highest of the three concentrations in FIG. 2, read-out: IC50 concentration of antagonist
[7] = inhibition of TMA/TAAR5 response, test odor at 30 μM, TMA at EC80

## Cc1occc1SSc1ccoc1C [Bis(2-Methyl-3-furyl) disulfide]
TAAR5 [1]; [6]
  IC50: 158 µM
TAAR5 [1]; TAAR5 luciferase, vs TMA
  IC10 concentration of antagonist: 31.62 µM
  IC30 concentration of antagonist: 77.62 µM
TAAR5 [2]; [7]
  inhibition at 30 µM: 88.3%

## C/C=C/c1ccc(OC(=O)Cc2ccccc2)c(OC)c1 [Isoeugenyl phenylacetate]
[3]; listed as Isoeugenyl Phenylacetate
  effect on perceived fishy rating of TMA: showed a similar pattern
[3]; listed as isoeugenyl phenylacetate
  effect on perceived fishy rating of TMA: decreases fishy intensity
TAAR5 [1]
  IC50: 703 µM
TAAR5 [1]; TAAR5 luciferase, vs TMA
  IC10 concentration of antagonist: 100 µM
  IC30 concentration of antagonist: 316.22 µM
TAAR5 [2]; [7]
  inhibition at 30 µM: 89.1%

## O=C(OCCc1ccccc1)c1ccccc1 [Phenethyl benzoate]
TAAR5 [1]; [6]
  IC50: 479 µM
TAAR5 [1]; TAAR5 luciferase, vs TMA
  IC10 concentration of antagonist: 50.11 µM
  IC30 concentration of antagonist: 251.19 µM
TAAR5 [2]; [7]
  inhibition at 30 µM: 93.5%

## CN(C)C [TMA, trimethylamine, reference compound]
TAAR5 [1]; TAAR5 luciferase
  EC80 of agonist on TAAR5: 500 µM
TAAR5 [4]
  activation of human TAAR5: activated in a concentration-dependent manner

## CCCCCC/C=C/CO [Trans-2-Nonen-1-ol]
[3]; listed as Trans-2-nonen-1-ol
  effect on perceived fishy rating of TMA: significantly decreased the perceived fishy rating
[3]; listed as trans-2-nonen-1-ol
  effect on perceived fishy rating of TMA: decreases fishy intensity
TAAR5 [1]; [6]
  IC50: 703 µM
TAAR5 [1]; TAAR5 luciferase, vs TMA
  IC10 concentration of antagonist: 100 µM
  IC30 concentration of antagonist: 316.22 µM
[5]
  peripheral component of mixture suppression: larger peripheral component of mixture suppression than the control odorant linalool
TAAR5 [2]; [7]
  inhibition at 30 µM: 89.3%

## C=CC(C)(O)CCC=C(C)C (stereo not shown) [linalool, reference compound]
[3]
  effect on perceived fishy rating of TMA: no effect on these fishy ratings
[3]; listed as Linalool
  effect on perceived fishy rating of TMA: does not
TAAR5 [2]; hTAAR5
  in vitro antagonism: did not show in vitro antagonism

## O=C1CCCC=CCCCCCCCCCC1 [velvione, 5-Cyclohexadecen-1-one]
TAAR5 [2]; [7]
  inhibition at 30 µM: 76%

## Tributyl-2-Acetylcitrate
TAAR5 [1]; [6]
  IC50: 242 µM
TAAR5 [1]; TAAR5 luciferase, vs TMA
  IC10 concentration of antagonist: 74.14 µM
  IC30 concentration of antagonist: 194.98 µM
TAAR5 [2]; [7]
  Percent Inhibition: 87.83%
